Results reported in PubChem BioAssay (NCI).
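Exposure lasted 48 hours, with cells grown in 96-well plates and compounds tested at five concentrations. The concentration for full growth arrest is given as TGI.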

Experiments:
Test in all cases: growth of human tumour cells (NCI), 48 h
786-0 renal = system: 786-0 renal
A498 renal = system: A498 renal
A549 NSCLC = system: A549 NSCLC
ACHN renal = system: ACHN renal
BT-549 breast = system: BT-549 breast
CAKI-1 renal = system: CAKI-1 renal
CCRF-CEM leukemia = system: CCRF-CEM leukemia
COLO 205 colon = system: COLO 205 colon
DU-145 prostate = system: DU-145 prostate
EKVX NSCLC = system: EKVX NSCLC
HCC-2998 colon = system: HCC-2998 colon
HCT-116 colon = system: HCT-116 colon
HCT-15 colon = system: HCT-15 colon
HL-60(TB) leukemia = system: HL-60(TB) leukemia
HOP-62 NSCLC = system: HOP-62 NSCLC
HOP-92 NSCLC = system: HOP-92 NSCLC
HS 578T breast = system: HS 578T breast
HT29 colon = system: HT29 colon
IGROV1 ovarian = system: IGROV1 ovarian
K-562 leukemia = system: K-562 leukemia
KM12 colon = system: KM12 colon
LOX IMVI melanoma = system: LOX IMVI melanoma
M14 melanoma = system: M14 melanoma
MALME-3M melanoma = system: MALME-3M melanoma
MCF7 breast = system: MCF7 breast
MDA-MB-231 breast = system: MDA-MB-231 breast
MDA-MB-435 = system: MDA-MB-435
MDA-N = system: MDA-N
MOLT-4 leukemia = system: MOLT-4 leukemia
NCI-H226 lung = system: NCI-H226 lung
NCI-H23 lung = system: NCI-H23 lung
NCI-H460 lung = system: NCI-H460 lung
NCI-H522 lung = system: NCI-H522 lung
NCI/ADR-RES ovarian = system: NCI/ADR-RES ovarian
OVCAR-3 ovarian = system: OVCAR-3 ovarian
OVCAR-4 ovarian = system: OVCAR-4 ovarian
OVCAR-5 ovarian = system: OVCAR-5 ovarian
OVCAR-8 ovarian = system: OVCAR-8 ovarian
PC-3 prostate = system: PC-3 prostate
RPMI-8226 leukemia = system: RPMI-8226 leukemia
RXF 393 renal = system: RXF 393 renal
SF-268 CNS = system: SF-268 CNS
SF-295 CNS = system: SF-295 CNS
SF-539 CNS = system: SF-539 CNS
SK-MEL-2 melanoma = system: SK-MEL-2 melanoma
SK-MEL-28 melanoma = system: SK-MEL-28 melanoma
SK-MEL-5 melanoma = system: SK-MEL-5 melanoma
SK-OV-3 ovarian = system: SK-OV-3 ovarian
SN12C renal = system: SN12C renal
SNB-19 CNS = system: SNB-19 CNS
SNB-75 CNS = system: SNB-75 CNS
SR leukemia = system: SR leukemia
SW-620 colon = system: SW-620 colon
T-47D breast = system: T-47D breast
TK-10 renal = system: TK-10 renal
U251 CNS = system: U251 CNS
UACC-257 melanoma = system: UACC-257 melanoma
UACC-62 melanoma = system: UACC-62 melanoma
UO-31 renal = system: UO-31 renal

`CNC1C(=O)C(C)C(O)(C(CC(C)C(O)/C=C/C=C/CNC(=O)C(C)(C)C(O)\C(C)=C/C=C\C=C\Cc2cnc(C)o2)OC)C12C(=O)OC2COC` (stereo not drawn) (tested in a mixture with another compound) gave a TGI (786-0 renal) of 73.7 µM, a TGI (A498 renal) greater than 79.3 µM and a TGI (A549 NSCLC) greater than 100 µM. The TGI (ACHN renal) was greater than 43.2 µM, the TGI (BT-549 breast) was greater than 100 µM and the TGI (CAKI-1 renal) was greater than 100 µM. It also gave a TGI (CCRF-CEM leukemia) of 38.5 µM, a TGI (COLO 205 colon) of 20.2 µM and a TGI (DU-145 prostate) greater than 100 µM. For the same compound, the TGI (EKVX NSCLC) was greater than 64.4 µM, the TGI (HCC-2998 colon) was 41.7 µM and the TGI (HCT-116 colon) was greater than 49.9 µM. The TGI (HCT-15 colon) was greater than 63.1 µM, the TGI (HL-60(TB) leukemia) was 3.48 µM and the TGI (HOP-62 NSCLC) was 24.1 µM. It also gave a TGI (HOP-92 NSCLC) greater than 51.3 µM, a TGI (HS 578T breast) greater than 100 µM and a TGI (HT29 colon) of 20.7 µM. The TGI (IGROV1 ovarian) was greater than 26.2 µM, the TGI (K-562 leukemia) was 5.42 µM and the TGI (KM12 colon) was 26.1 µM. For the same compound, the TGI (LOX IMVI melanoma) was 31.5 µM, the TGI (M14 melanoma) was 27 µM and the TGI (MALME-3M melanoma) was greater than 87.9 µM. For the same compound, the TGI (MCF7 breast) was greater than 84.9 µM, the TGI (MDA-MB-231 breast) was greater than 63.3 µM and the TGI (MDA-MB-435) was greater than 100 µM. The TGI (MDA-N) was 71.4 µM, the TGI (MOLT-4 leukemia) was 35.8 µM and the TGI (NCI-H226 lung) was 4.92 µM. The TGI (NCI-H23 lung) was greater than 60.7 µM, the TGI (NCI-H460 lung) was greater than 100 µM and the TGI (NCI-H522 lung) was 21.2 µM. It also gave a TGI (NCI/ADR-RES ovarian) greater than 100 µM, a TGI (OVCAR-3 ovarian) of 34.6 µM and a TGI (OVCAR-4 ovarian) greater than 100 µM. It also gave a TGI (OVCAR-5 ovarian) greater than 70.2 µM, a TGI (OVCAR-8 ovarian) greater than 100 µM and a TGI (PC-3 prostate) of 63.5 µM. The TGI (RPMI-8226 leukemia) was 42.4 µM, the TGI (RXF 393 renal) was 92.3 µM and the TGI (SF-268 CNS) was 42.9 µM. For the same compound, the TGI (SF-295 CNS) was greater than 53.3 µM, the TGI (SF-539 CNS) was 67 µM and the TGI (SK-MEL-2 melanoma) was greater than 71.7 µM. The TGI (SK-MEL-28 melanoma) was greater than 100 µM, the TGI (SK-MEL-5 melanoma) was 18.4 µM and the TGI (SK-OV-3 ovarian) was greater than 100 µM. The TGI (SN12C renal) was greater than 82.7 µM, the TGI (SNB-19 CNS) was greater than 85.9 µM and the TGI (SNB-75 CNS) was 30.6 µM. The TGI (SR leukemia) was 48.1 µM, the TGI (SW-620 colon) was greater than 46.9 µM and the TGI (T-47D breast) was greater than 93.3 µM. The TGI (TK-10 renal) was greater than 100 µM, the TGI (U251 CNS) was greater than 52.2 µM and the TGI (UACC-257 melanoma) was greater than 100 µM. It also gave a TGI (UACC-62 melanoma) of 49.9 µM and a TGI (UO-31 renal) of 67.3 µM.
Compound `C=C(C)[C@@H](C(=O)OC)N1C(=O)c2ccccc2C1=O` has a TGI (786-0 renal) greater than 100 µM, a TGI (A498 renal) greater than 100 µM and a TGI (A549 NSCLC) greater than 100 µM. It also gave a TGI (ACHN renal) greater than 100 µM, a TGI (BT-549 breast) greater than 100 µM and a TGI (CAKI-1 renal) greater than 100 µM. It also gave a TGI (CCRF-CEM leukemia) greater than 100 µM, a TGI (COLO 205 colon) greater than 100 µM and a TGI (DU-145 prostate) greater than 100 µM. It also gave a TGI (EKVX NSCLC) greater than 100 µM, a TGI (HCC-2998 colon) greater than 100 µM and a TGI (HCT-116 colon) greater than 100 µM. For the same compound, the TGI (HCT-15 colon) was greater than 100 µM, the TGI (HL-60(TB) leukemia) was greater than 100 µM and the TGI (HOP-62 NSCLC) was greater than 100 µM. For the same compound, the TGI (HOP-92 NSCLC) was greater than 100 µM, the TGI (HS 578T breast) was greater than 100 µM and the TGI (HT29 colon) was greater than 100 µM. The TGI (IGROV1 ovarian) was greater than 100 µM, the TGI (K-562 leukemia) was greater than 100 µM and the TGI (KM12 colon) was greater than 100 µM. For the same compound, the TGI (LOX IMVI melanoma) was greater than 100 µM, the TGI (M14 melanoma) was greater than 100 µM and the TGI (MALME-3M melanoma) was greater than 100 µM. The TGI (MCF7 breast) was greater than 100 µM, the TGI (MDA-MB-231 breast) was greater than 100 µM and the TGI (MDA-MB-435) was greater than 100 µM. It also gave a TGI (MDA-N) greater than 100 µM, a TGI (MOLT-4 leukemia) greater than 100 µM and a TGI (NCI-H226 lung) greater than 100 µM. For the same compound, the TGI (NCI-H23 lung) was greater than 100 µM, the TGI (NCI-H460 lung) was greater than 100 µM and the TGI (NCI-H522 lung) was greater than 100 µM. For the same compound, the TGI (NCI/ADR-RES ovarian) was greater than 100 µM, the TGI (OVCAR-3 ovarian) was greater than 100 µM and the TGI (OVCAR-4 ovarian) was greater than 100 µM. For the same compound, the TGI (OVCAR-5 ovarian) was greater than 100 µM, the TGI (OVCAR-8 ovarian) was greater than 100 µM and the TGI (PC-3 prostate) was greater than 100 µM. It also gave a TGI (RPMI-8226 leukemia) greater than 100 µM, a TGI (RXF 393 renal) greater than 100 µM and a TGI (SF-268 CNS) greater than 100 µM. The TGI (SF-295 CNS) was greater than 100 µM, the TGI (SF-539 CNS) was greater than 100 µM and the TGI (SK-MEL-2 melanoma) was greater than 100 µM. For the same compound, the TGI (SK-MEL-28 melanoma) was greater than 100 µM, the TGI (SK-MEL-5 melanoma) was greater than 100 µM and the TGI (SK-OV-3 ovarian) was greater than 100 µM. The TGI (SN12C renal) was greater than 100 µM, the TGI (SNB-19 CNS) was greater than 100 µM and the TGI (SNB-75 CNS) was greater than 100 µM. It also gave a TGI (SR leukemia) greater than 100 µM, a TGI (SW-620 colon) greater than 100 µM and a TGI (T-47D breast) greater than 100 µM. The TGI (TK-10 renal) was greater than 100 µM, the TGI (U251 CNS) was greater than 100 µM and the TGI (UACC-257 melanoma) was greater than 100 µM. The TGI (UACC-62 melanoma) was greater than 100 µM and the TGI (UO-31 renal) was greater than 100 µM.
